In patent publication US5413993A, “Method for the treatment of narcotic withdrawal symptoms in animals using lipopolysaccharides” (priority 1992, dated 1995):

Tests used:
[1] = tested on: jumping, a severer withdrawal symptom; details: intravenous, 0.1-0.10 mg/kg
[2] = Convulsions on intravenous clonidine (inventors' finding); format: in vivo; details: 10 mg/kg
withdrawal body shake = details: intraperitoneal, 0.16 mg/kg; cited from earlier work
[3] = in vivo; cited from earlier work
[4] = in vivo; cited from earlier work; remark: listed apart in the source

Clc1cccc(Cl)c1N=C1NCCN1 [Clonidine, clonidine]
suppression of jumping [1]: fails to suppress jumping
convulsions [2]: causes convulsions
suppression of withdrawal body shake (withdrawal body shake): suppress withdrawal body shake

C[C@]12N[C@H](Cc3ccccc31)c1ccccc12 [Dizocilipine, dizocilpine]
difference between toxic and effective doses [3]: extremely small difference between its toxic and effective doses

CCC(=O)C(CC(C)N(C)C)(c1ccccc1)c1ccccc1 (centres unmarked) [Methadone]
dependence to itself [4]: cause dependence to itself
